Test system: NOMO1
Experiment: cell viability relative to DMSO control; higher = less cytotoxic
Settings: 48 h
Summary of the method: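 Before seeding, each leukemia line was adapted for at least four passages in each medium. NOMO1 or SEM cells (500 cells/well) and P12-Ichikawa cells (1000 cells/well) went into 1536-well plates at 5 μl, then received library compounds in DMSO by pin dosing across 11 threefold concentrations, 47 μM to 0.79 nM. Readout was CellTiter-Glo One luminescence after 48 h at 37°C, and viability is given as a per-plate percentage of DMSO wells, with cell-free wells as background.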

[1] = HPLM + 10% dialyzed FBS, 0.000781 µM
[2] = HPLM + 10% dialyzed FBS, 0.00234 µM
[3] = HPLM + 10% dialyzed FBS, 0.00702 µM
[4] = HPLM + 10% dialyzed FBS, 0.0211 µM
[5] = HPLM + 10% dialyzed FBS, 0.0632 µM
[6] = HPLM + 10% dialyzed FBS, 0.19 µM
[7] = HPLM + 10% dialyzed FBS, 0.569 µM
[8] = HPLM + 10% dialyzed FBS, 1.71 µM
[9] = HPLM + 10% dialyzed FBS, 5.12 µM
[10] = HPLM + 10% dialyzed FBS, 15.4 µM
[11] = HPLM + 10% dialyzed FBS, 46.1 µM
[12] = RPMI 5 mM glucose + 10% FBS, 0.000781 µM
[13] = RPMI 5 mM glucose + 10% FBS, 0.00234 µM
[14] = RPMI 5 mM glucose + 10% FBS, 0.00702 µM
[15] = RPMI 5 mM glucose + 10% FBS, 0.0211 µM
[16] = RPMI 5 mM glucose + 10% FBS, 0.0632 µM
[17] = RPMI 5 mM glucose + 10% FBS, 0.19 µM
[18] = RPMI 5 mM glucose + 10% FBS, 0.569 µM
[19] = RPMI 5 mM glucose + 10% FBS, 1.71 µM
[20] = RPMI 5 mM glucose + 10% FBS, 5.12 µM
[21] = RPMI 5 mM glucose + 10% FBS, 15.4 µM
[22] = RPMI 5 mM glucose + 10% FBS, 46.1 µM
[23] = RPMI 5 mM glucose + 10% dialyzed FBS, 0.000781 µM
[24] = RPMI 5 mM glucose + 10% dialyzed FBS, 0.00234 µM
[25] = RPMI 5 mM glucose + 10% dialyzed FBS, 0.00702 µM
[26] = RPMI 5 mM glucose + 10% dialyzed FBS, 0.0211 µM
[27] = RPMI 5 mM glucose + 10% dialyzed FBS, 0.0632 µM
[28] = RPMI 5 mM glucose + 10% dialyzed FBS, 0.19 µM
[29] = RPMI 5 mM glucose + 10% dialyzed FBS, 0.569 µM
[30] = RPMI 5 mM glucose + 10% dialyzed FBS, 1.71 µM
[31] = RPMI 5 mM glucose + 10% dialyzed FBS, 5.12 µM
[32] = RPMI 5 mM glucose + 10% dialyzed FBS, 15.4 µM
[33] = RPMI 5 mM glucose + 10% dialyzed FBS, 46.1 µM

SMILES	cell viability [1] [%]	cell viability [2] [%]	cell viability [3] [%]	cell viability [4] [%]	cell viability [5] [%]	cell viability [6] [%]	cell viability [7] [%]	cell viability [8] [%]	cell viability [9] [%]	cell viability [10] [%]	cell viability [11] [%]	cell viability [12] [%]	cell viability [13] [%]	cell viability [14] [%]	cell viability [15] [%]	cell viability [16] [%]	cell viability [17] [%]	cell viability [18] [%]	cell viability [19] [%]	cell viability [20] [%]	cell viability [21] [%]	cell viability [22] [%]	cell viability [23] [%]	cell viability [24] [%]	cell viability [25] [%]	cell viability [26] [%]	cell viability [27] [%]	cell viability [28] [%]	cell viability [29] [%]	cell viability [30] [%]	cell viability [31] [%]	cell viability [32] [%]	cell viability [33] [%]
CC(=O)O[C@@]12CO[C@@H]1C[C@H](O)[C@]3(C)[C@@H]2[C@H](OC(=O)C4=CC=CC=C4)[C@]5(O)C[C@H](OC(=O)C(O)[C@@H](NC(=O)OC(C)(C)C)C6=CC=CC=C6)C(=C(/[C@@H](O)C3=O)C5(C)C)/C (stereo partly drawn)	32.4	37.3	34.7	39.4	42	43	31.7	27.4	27.7	7.8	5.55	23.9	27	25.5	28.9	28.2	27.1	24.7	24.8	20	12.6	8.59	25.2	30.6	27.8	31.5	28.9	29.7	27.3	26.2	18.8	11	9.95
Cc1ncc([N+](=O)[O-])n1CCO	112	122	126	145	130	122	120	137	116	142	120	–	–	–	–	–	–	–	–	–	–	–	113	113	125	131	137	140	132	142	129	136	130
C[C@@H]1CC[C@@]2(OC1)OC1CC3C4CC=C5CC(O)CCC5(C)C4CCC3(C)C1[C@@H]2C (stereo partly drawn)	95.6	84.6	105	114	113	112	116	127	117	44.5	16.5	89.7	87.3	95	95.3	96	90.6	93	98.5	90.1	48.5	11.8	90.6	83.5	97	87.6	87.4	93.1	91.9	90.8	88.3	73.4	29.1
N#CC(=C(/N)Sc1ccccc1N)/C(C#N)=C(\N)Sc1ccccc1N	118	119	122	128	134	140	130	101	107	90.8	71	115	115	121	120	120	121	118	117	114	120	97.8	–	–	–	–	–	–	–	–	–	–	–
Cc1cn(CCN2CCN(c3ccccc3-c3cc(C#N)cc(C(=O)NCCCN4CCCC4)c3)CC2)c2ccccc12	103	111	111	121	148	130	127	134	85.3	35.3	10.7	102	110	115	109	125	119	119	112	108	38.4	22.7	119	102	109	119	120	110	124	112	96.4	44.5	25.5
